Results taken from patent US6455584B1, “Prostaglandin E1 derivatives” (Taisho Pharmaceutical Co., Ltd., priority 1999, dated 2002).

System: human vascular smooth muscle cells
Assay: DNA synthesis inhibition activity of PGE1 derivatives to human vascular smooth muscle cells (3H-thymidine intake)
Type: cell-based
Conditions: for Growth inhibition rate (percent to control): concentration of the added compound 1×10^−5 M, ethanol solution, 3H-thymidine intake after culturing 24 hours, compared with vehicle-treated control; for growth inhibition activity against human vascular smooth muscle cells: summary in words of Table 1, 1×10^−5 M
Description: Determination of DNA synthesis inhibition activity of PGE1 derivatives to human vascular smooth muscle cells
On a plate with 24 wells (manufactured by Corning Co.), 1×10^4 cells/well of quintic culture cells of vascular cells derived from normal human aorta (manufactured by Kurabo Co.) were inoculated and cultured for 2 days. The medium was exchanged from the growth medium (SG2: manufactured by Kurabo Co.) to the basal medium (SB2: manufactured by Kurabo Co.), and cultured for 24 hours, to which was added the growth medium (SG2) containing an ethanol solution of the test compound. 0.01 mci/well of ^3H-thymidine (manufactured by Daiichi Chemicals Co.) was added and, after culturing for 24 hours, the cultured supernatant was removed by suction, followed by washing with a phosphate buffer solution (PBS).
5% Trichloroacetic acid (TCA) was added and, after allowing to stand at 4° C. for 20 minutes, the mixture was washed once with TCA. The mixture was washed with PBS, and dissolved in 0.5 M aqueous potassium hydroxide solution. Intake of ^3H-thymidine was determined using 20 μl of the aqueous potassium hydroxide solution dissolving the cells which incorporated ^3H-thymidine in the nucleus by means of a liquid scintillation counter (manufactured by Hewlett-Packard Co.).
Note: Compounds 7, 70 and 92 in the table are those which were prepared in Examples. The test compounds were each used as an ethanol solution (the concentration of the added compound: 1×10^−5 M), and compared with control (vehicle-treated group).

Row | Compound | Growth inhibition rate (percent to control) | growth inhibition activity against human vascular smooth muscle cells
1 | CCCC[C@@H](C)CC(O)C#CC1C(CCCCCCC(=O)O)C(=O)C[C@H]1SCCO (stereo partly drawn) [Compound 7, (11R,17R)-11-deoxy-11-(2-hydroxyethylthio)-17,20-dimethyl-13,14-didehydro-PGE1] | 98.4% | high growth inhibition activity
2 | CCCC[C@@H](C)CC(O)C#CC1C(CCCCOCC(=O)OC)C(=O)C[C@H]1SCCO (stereo partly drawn) [Compound 70, (11R,17R)-3-oxa-11-deoxy-11-(2-hydroxyethylthio)-17,20-dimethyl-13,14-didehydro-PGE1 Methyl Ester] | 95.6% | high growth inhibition activity
3 | COC(=O)COCCCCC1C(=O)C[C@@H](SCCO)C1C#CC(O)C[C@H](C)CCC=C(C)C (stereo partly drawn) [Compound 92, (11R,17R)-3-oxa-11-deoxy-11-(2-hydroxyethylthio)-20-isopropylidene-17-methyl-13,14-didehydro-PGE1 Methyl Ester] | 99.3% | high growth inhibition activity
